Measured values published in PubChem BioAssay (NCI).
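Briefly, cells in 96-well plates were exposed to five compound concentrations for 48 h, and endpoints were estimated by linear interpolation. Abbreviation: GI50, concentration required for 50% inhibition of growth. TGI is the concentration that stops growth completely.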

Assays:
Assay in all cases: NCI-60 cell line screen, 48 h
[1] = test system: NCI-H460 lung
[2] = test system: DU-145 prostate
[3] = test system: RXF 393 renal
[4] = test system: SR leukemia
[5] = test system: UACC-257 melanoma
[6] = test system: SNB-75 CNS
[7] = test system: U251 CNS
[8] = test system: IGROV1 ovarian
[9] = test system: A498 renal
[10] = test system: OVCAR-3 ovarian
[11] = test system: HS 578T breast
[12] = test system: CAKI-1 renal
[13] = test system: MDA-MB-231 breast
[14] = test system: TK-10 renal
[15] = test system: M14 melanoma
[16] = test system: HOP-62 NSCLC
[17] = test system: KM12 colon
[18] = test system: SF-295 CNS
[19] = test system: NCI-H522 lung
[20] = test system: MOLT-4 leukemia
[21] = test system: NCI-H226 lung
[22] = test system: HCT-15 colon
[23] = test system: MDA-MB-435
[24] = test system: COLO 205 colon
[25] = test system: NCI-H23 lung
[26] = test system: MCF7 breast
[27] = test system: MALME-3M melanoma
[28] = test system: SW-620 colon
[29] = test system: K-562 leukemia
[30] = test system: UO-31 renal
[31] = test system: SK-OV-3 ovarian
[32] = test system: SF-268 CNS
[33] = test system: SN12C renal
[34] = test system: HT29 colon
[35] = test system: A549 NSCLC
[36] = test system: HCT-116 colon
[37] = test system: OVCAR-5 ovarian
[38] = test system: OVCAR-4 ovarian
[39] = test system: HCC-2998 colon
[40] = test system: T-47D breast
[41] = test system: RPMI-8226 leukemia
[42] = test system: SF-539 CNS
[43] = test system: HOP-92 NSCLC
[44] = test system: 786-0 renal
[45] = test system: SK-MEL-28 melanoma
[46] = test system: UACC-62 melanoma
[47] = test system: SNB-19 CNS
[48] = test system: PC-3 prostate
[49] = test system: NCI/ADR-RES ovarian
[50] = test system: ACHN renal
[51] = test system: BT-549 breast
[52] = test system: SK-MEL-5 melanoma
[53] = test system: CCRF-CEM leukemia

Question: For `O=C(/C(=C/c1cccc([N+](=O)[O-])c1)c1ccccc1)c1ccccc1`, which GI50 [1] is on record?
Answer: 3.32 µM

Question: And the TGI [1]?
Answer: 12.6 µM

Question: And the GI50 [2]?
Answer: 4.22 µM

Question: And the TGI [2]?
Answer: 14.7 µM

Question: What about the GI50 [3] of the same molecule?
Answer: 3.39 µM

Question: And the TGI [3]?
Answer: 9.06 µM

Question: And the GI50 [4]?
Answer: 2.7 µM

Question: And the TGI [4]?
Answer: > 100 µM

Question: What about the GI50 [5] of the same molecule?
Answer: 4.17 µM

Question: And the TGI [5]?
Answer: 18.8 µM

Question: What about the GI50 [6] of the same molecule?
Answer: 2.3 µM

Question: And the TGI [6]?
Answer: 7.65 µM

Question: What about the GI50 [7] of the same molecule?
Answer: 2.72 µM

Question: And the TGI [7]?
Answer: 8.16 µM

Question: What about the GI50 [8] of the same molecule?
Answer: 3.38 µM

Question: And the TGI [8]?
Answer: 27.8 µM

Question: What about the GI50 [9] of the same molecule?
Answer: 2.69 µM

Question: What about the TGI [9] of the same molecule?
Answer: 12.9 µM

Question: And the GI50 [10]?
Answer: 3.66 µM

Question: And the TGI [10]?
Answer: 10.9 µM

Question: And the GI50 [11]?
Answer: 3.89 µM

Question: What about the TGI [11] of the same molecule?
Answer: > 100 µM

Question: What about the GI50 [12] of the same molecule?
Answer: 3.18 µM

Question: What about the TGI [12] of the same molecule?
Answer: 10.2 µM

Question: And the GI50 [13]?
Answer: 4.01 µM

Question: And the TGI [13]?
Answer: > 100 µM

Question: And the GI50 [14]?
Answer: 4.19 µM

Question: And the TGI [14]?
Answer: 21.4 µM

Question: What about the GI50 [15] of the same molecule?
Answer: 3.45 µM

Question: What about the TGI [15] of the same molecule?
Answer: 18.9 µM

Question: What about the GI50 [16] of the same molecule?
Answer: 2.87 µM

Question: And the TGI [16]?
Answer: 7.56 µM

Question: And the GI50 [17]?
Answer: 3.7 µM

Question: And the TGI [17]?
Answer: 13.1 µM

Question: What about the GI50 [18] of the same molecule?
Answer: 4.08 µM

Question: What about the TGI [18] of the same molecule?
Answer: 20.2 µM

Question: What about the GI50 [19] of the same molecule?
Answer: 1.91 µM

Question: What about the TGI [19] of the same molecule?
Answer: 3.77 µM

Question: What about the GI50 [20] of the same molecule?
Answer: 3.13 µM

Question: And the TGI [20]?
Answer: 11.6 µM

Question: And the GI50 [21]?
Answer: 3.08 µM

Question: What about the TGI [21] of the same molecule?
Answer: 11.5 µM

Question: What about the GI50 [22] of the same molecule?
Answer: 2.75 µM

Question: And the TGI [22]?
Answer: 16.5 µM

Question: What about the GI50 [23] of the same molecule?
Answer: 1.96 µM

Question: What about the TGI [23] of the same molecule?
Answer: 4.43 µM

Question: And the GI50 [24]?
Answer: 3.82 µM

Question: And the TGI [24]?
Answer: 13.3 µM

Question: And the GI50 [25]?
Answer: 2.92 µM

Question: And the TGI [25]?
Answer: 17 µM

Question: And the GI50 [26]?
Answer: 3.34 µM

Question: And the TGI [26]?
Answer: 13.3 µM

Question: And the GI50 [27]?
Answer: 2.32 µM

Question: What about the TGI [27] of the same molecule?
Answer: 5.81 µM

Question: And the GI50 [28]?
Answer: 3.1 µM

Question: What about the TGI [28] of the same molecule?
Answer: 9.19 µM

Question: And the GI50 [29]?
Answer: 3.27 µM

Question: What about the TGI [29] of the same molecule?
Answer: 15.7 µM

Question: And the GI50 [30]?
Answer: 2.21 µM

Question: And the TGI [30]?
Answer: 5.85 µM

Question: What about the GI50 [31] of the same molecule?
Answer: 3.69 µM

Question: And the TGI [31]?
Answer: 10.2 µM

Question: And the GI50 [32]?
Answer: 3.9 µM

Question: And the TGI [32]?
Answer: 15.5 µM

Question: What about the GI50 [33] of the same molecule?
Answer: 3.54 µM

Question: What about the TGI [33] of the same molecule?
Answer: 79.8 µM

Question: What about the GI50 [34] of the same molecule?
Answer: 3.24 µM

Question: And the TGI [34]?
Answer: 8.83 µM

Question: And the GI50 [35]?
Answer: 4.31 µM

Question: And the TGI [35]?
Answer: 30.1 µM

Question: And the GI50 [36]?
Answer: 2.01 µM

Question: And the TGI [36]?
Answer: 4.25 µM

Question: What about the GI50 [37] of the same molecule?
Answer: 5.56 µM

Question: And the TGI [37]?
Answer: 25.8 µM

Question: And the GI50 [38]?
Answer: 4.26 µM

Question: And the TGI [38]?
Answer: 16 µM

Question: And the GI50 [39]?
Answer: 2.54 µM

Question: And the TGI [39]?
Answer: 6.27 µM

Question: And the GI50 [40]?
Answer: 3.42 µM

Question: And the TGI [40]?
Answer: 15.5 µM

Question: What about the GI50 [41] of the same molecule?
Answer: 2.34 µM

Question: And the TGI [41]?
Answer: 7.68 µM

Question: And the GI50 [42]?
Answer: 3.49 µM

Question: What about the TGI [42] of the same molecule?
Answer: 11.9 µM

Question: And the GI50 [43]?
Answer: 1.97 µM

Question: And the TGI [43]?
Answer: 6.95 µM

Question: What about the GI50 [44] of the same molecule?
Answer: 4.8 µM

Question: What about the TGI [44] of the same molecule?
Answer: 18.3 µM

Question: What about the GI50 [45] of the same molecule?
Answer: 2.84 µM

Question: What about the TGI [45] of the same molecule?
Answer: 8.97 µM

Question: And the GI50 [46]?
Answer: 2.8 µM

Question: And the TGI [46]?
Answer: 12.1 µM

Question: And the GI50 [47]?
Answer: 5.15 µM

Question: And the TGI [47]?
Answer: 19.7 µM

Question: What about the GI50 [48] of the same molecule?
Answer: 4.54 µM

Question: What about the TGI [48] of the same molecule?
Answer: 36.2 µM

Question: And the GI50 [49]?
Answer: 2.98 µM

Question: What about the TGI [49] of the same molecule?
Answer: > 100 µM

Question: What about the GI50 [50] of the same molecule?
Answer: 2.3 µM

Question: And the TGI [50]?
Answer: 5.41 µM

Question: And the GI50 [51]?
Answer: 3.38 µM

Question: And the TGI [51]?
Answer: 13.1 µM

Question: And the GI50 [52]?
Answer: 2.39 µM

Question: What about the TGI [52] of the same molecule?
Answer: 6.73 µM

Question: And the GI50 [53]?
Answer: 2.17 µM

Question: What about the TGI [53] of the same molecule?
Answer: 27.8 µM
